The values that follow come from patent publication EP2459571B1, “NITROIMIDAZOOXAZINES AND THEIR USES IN ANTI-TUBERCULAR THERAPY” (priority 2009, dated 2011).

For data set [1], the system named is replicating Mycobacterium tuberculosis. Description: MIC, microplate Alamar blue assay (MABA), 8 day. Type of data set: cell-based. Conditions: 192 h, read-out: MIC MABA (aerobic).
Data set [2] concerns M. tuberculosis bacteria in the non-replicating state. Description: microbe, parasite or virus in culture. Type of data set: cell-based. The note with it: Mycobacterium tuberculosis, 264 h, low oxygen, 11 day, read-out: MIC LORA (anaerobic).
A short description of data set [3]: Stability to human liver microsomes. Type of data set: in vitro ADME. Conditions: pH 7.4, 37 °C, 0.5 mg/mL protein, NADPH regenerating system, 60 min.
Data set [4] is described as follows: Stability to mouse liver microsomes. The note with it: pH 7.4, 37 °C, 0.5 mg/mL protein, NADPH regenerating system, 60 min. Type of data set: in vitro ADME, CD-1 mouse.
For data set [5], the system named is M. tuberculosis Erdman. Details: species or system BALB/c mice. Conditions: mouse, po, 100 mg/kg.
Data set [6] has as its system M. tuberculosis Erdman. Type of data set: in vivo, BALB/c mice. Conditions: mouse, in vivo, po, 100 mg/kg.
The conditions of data set [7]: CD-1 mice, oral, 40 mg/kg; for t½ (h) plasma: suspension in 0.5% carboxymethylcellulose/0.08% Tween 80.
A short description of another data set: in vivo. Conditions: mouse, po, 40 mg/kg.

≈ marks a conversion by molar mass, not a printed value.

Take `O=[N+]([O-])c1cn2c(n1)OC[C@@H](OCc1ccc(/C=C/c3ccc(OC(F)(F)F)cc3)cc1)C2` [compound 31, (6S)-2-Nitro-6-[(4-{(E)-2-[4-(trifluoromethoxy)phenyl]ethenyl}benzyl)oxy]-6,7-dihydro-5H-imidazo[2,1-b][1,3]oxazine]: the MIC came to 0.02 µM (≈ 0.00923 µg/mL) in data set [1] and 27 µM (≈ 12.5 µg/mL) in data set [2]. Moreover, the fraction remaining at 1 h, 1 µM in data set [3] was 99%; in data set [4], 98%. Moreover, the “In vivo efficacy vs PA-824, Acute” value in the data set on M. tuberculosis Erdman [5] was 5.8.

Regarding `O=[N+]([O-])c1cn2c(n1)OC[C@@H](OCc1ccc(-c3ccc(OC(F)(F)F)cc3)cn1)C2` [compound 7, (6S)-2-Nitro-6-({5-[4-(trifluoromethoxy)phenyl]-2-pyridinyl}methoxy)-6,7-dihydro-5H-imidazo[2,1-b][1,3]oxazine], the MIC in data set [1] is 0.065 µM (≈ 0.0284 µg/mL); in data set [2] it was 3.7 µM (≈ 1.61 µg/mL). Moreover, in the data set on M. tuberculosis Erdman [5], the “In vivo efficacy vs PA-824, Acute” value was determined as 27. The “In vivo efficacy vs PA-824, Chronic” value in the data set with M. tuberculosis Erdman [6] was 0.9. In data set [7], the “t½ (h) plasma” value was determined as 5.4 h. This compound returned an AUC in “in vivo” of 427 µg·h/mL.

`O=[N+]([O-])c1cn2c(n1)OC[C@@H](OCc1ccc(-c3ccc(F)cc3)nc1)C2` [compound 5, (6S)-6-{[6-(4-Fluorophenyl)-3-pyridinyl]methoxy}-2-nitro-6,7-dihydro-5H-imidazo[2,1-b][1,3]oxazine]: the MIC in data set [1] came out at 0.06 µM (≈ 0.0222 µg/mL). In addition, in data set [2], the MIC is 2.9 µM (≈ 1.07 µg/mL). In addition, the “In vivo efficacy vs PA-824, Acute” value in the data set on M. tuberculosis Erdman [5] is reported as 7.8. Further, in the data set with M. tuberculosis Erdman [6], the “In vivo efficacy vs PA-824, Chronic” value was determined as 20. Moreover, in data set [7], the Cmax plasma was found to be 5300 ng/mL and the “t½ (h) plasma” value turned out to be 2.7 h. In addition, the AUC in the data set “in vivo” turned out to be 136 µg·h/mL.

As to `O=[N+]([O-])c1cn2c(n1)OC[C@@H](OCc1ccc(C#Cc3ccc(C(F)(F)F)nc3)cn1)C2` [compound 25, (6S)-2-Nitro-6-[(5-{[6-(trifluoromethyl)-3-pyridinyl]ethynyl}-2-pyridinyl)methoxy]-6,7-dihydro-5H-imidazo[2,1-b][1,3]oxazine], the MIC in data set [1] turned out to be 0.035 µM (≈ 0.0156 µg/mL); in data set [2], 0.74 µM (≈ 0.33 µg/mL). Also, the share remaining at 1 h, 1 µM in data set [3] was 88%; in data set [4] it was 91%.

For the compound `O=[N+]([O-])c1cn2c(n1)OC[C@@H](OCc1ccc(-c3ccc(OC(F)(F)F)cc3)nc1)C2` [compound 6, (6S)-2-Nitro-6-({6-[4-(trifluoromethoxy)phenyl]-3-pyridinyl}methoxy)-6,7-dihydro-5H-imidazo[2,1-b][1,3]oxazine], the MIC in data set [1] came out at 0.05 µM (≈ 0.0218 µg/mL); in data set [2] it was 0.54 µM (≈ 0.236 µg/mL). In the data set with M. tuberculosis Erdman [5], the “In vivo efficacy vs PA-824, Acute” value is above 89. Also, the “In vivo efficacy vs PA-824, Chronic” value in the data set on M. tuberculosis Erdman [6] is 15. For the same compound, in data set [7], the “t½ (h) plasma” value turned out to be 24 h. Moreover, in the data set “in vivo”, the AUC stood at 81 µg·h/mL.

Turning to `O=[N+]([O-])c1cn2c(n1)OC[C@@H](OCc1ccn(-c3ccc(OC(F)(F)F)cc3)n1)C2` [compound 10, (6S)-2-nitro-6-({1-[4-(trifluoromethoxy)phenyl]-1H-pyrazol-3-yl}methoxy)-6,7-dihydro-5H-imidazo[2,1-A][1,3]oxazine], the MIC was 0.05 µM (≈ 0.0213 µg/mL) in data set [1] and 0.61 µM (≈ 0.259 µg/mL) in data set [2]. In addition, the results for the fraction remaining at 1 h, 1 µM in data set [3] and in data set [4] were 87% and 67%, respectively. Also, the “In vivo efficacy vs PA-824, Acute” value in the data set with M. tuberculosis Erdman [5] came out at 41. Besides, the AUC in “in vivo” turned out to be 31.5 µg·h/mL.

For `O=[N+]([O-])c1cn2c(n1)OC[C@@H](OCc1ccc(Cc3ccc(OC(F)(F)F)cc3)cc1)C2` [compound 17, (6S)-2-Nitro-6-({4-[4-(trifluoromethoxy)benzyl]benzyl}oxy)-6,7-dihydro-5H-imidazo[2,1-b][1,3]oxazine], the MIC in data set [1] amounted to 0.02 µM (≈ 0.00899 µg/mL); in data set [2], 1.1 µM (≈ 0.494 µg/mL). The results for the fraction remaining at 1 h, 1 µM in data set [3] and in data set [4] were 85% and 70%, respectively.

Consider `O=[N+]([O-])c1cn2c(n1)OC[C@@H](OCc1ccc(-c3ccc(C(F)(F)F)cn3)cc1)C2` [compound 8, (6S)-2-Nitro-6-({4-[5-(trifluoromethyl)-2-pyridinyl]benzyl}oxy)-6,7-dihydro-5H-imidazo[2,1-b][1,3]oxazine], for which the MIC in data set [1] is 0.06 µM (≈ 0.0252 µg/mL). Besides, in data set [2], the MIC worked out at 1 µM (≈ 0.42 µg/mL). Besides, the “In vivo efficacy vs PA-824, Acute” value in the data set on M. tuberculosis Erdman [5] was 33. The “In vivo efficacy vs PA-824, Chronic” value in the data set with M. tuberculosis Erdman [6] was determined as 1.7. Besides, in data set [7], the Cmax plasma was 1100 ng/mL and the “t½ (h) plasma” value is 8.8 h. In the data set “in vivo”, this compound yielded an AUC of 67.3 µg·h/mL.

Regarding `O=[N+]([O-])c1cn2c(n1)OC[C@@H](OCC#Cc1ccc(-c3ccc(OC(F)(F)F)cc3)cc1)C2` [compound 30, (6S)-2-Nitro-6-({3-[4'-(trifluoromethoxy)[1,1'-biphenyl]-4-yl]-2-propynyl}oxy)-6,7-dihydro-5H-imidazo[2,1-b][1,3]oxazine], the MIC in data set [1] stood at 0.16 µM (≈ 0.0735 µg/mL). The MIC in data set [2] was found to be 0.99 µM (≈ 0.455 µg/mL). Moreover, the “In vivo efficacy vs PA-824, Acute” value in the data set with M. tuberculosis Erdman [5] came out at 89. Besides, the “In vivo efficacy vs PA-824, Chronic” value in the data set with M. tuberculosis Erdman [6] amounted to 11. Further, in data set [7], the Cmax plasma was 570 ng/mL and the “t½ (h) plasma” value was 7.5 h. Besides, the AUC in “in vivo” was 13.6 µg·h/mL.

As for `O=[N+]([O-])c1cn2c(n1)OC[C@@H](OCc1ccc(-c3ccc(OC(F)(F)F)cc3)cc1F)C2` [compound 12, (6S)-6-{[3-Fluoro-4'-(trifluoromethoxy)[1,1'-biphenyl]-4-yl]methoxy}-2-nitro-6,7-dihydro-5H-imidazo[2,1-b][1,3]oxazine], the values for the MIC in data set [1] and in data set [2] were 0.017 µM (≈ 0.00771 µg/mL) and 1.2 µM (≈ 0.544 µg/mL), respectively. The “In vivo efficacy vs PA-824, Acute” value with M. tuberculosis Erdman [5] is 33. Further, the “In vivo efficacy vs PA-824, Chronic” value in the data set on M. tuberculosis Erdman [6] is reported as 16. The same compound displayed a Cmax plasma in data set [7] of 6700 ng/mL. In the data set “in vivo”, this compound showed an AUC of 549 µg·h/mL.

For the compound `O=[N+]([O-])c1cn2c(n1)OC[C@@H](OCc1ccc(-c3ccc(C(F)(F)F)nc3)cc1)C2` [compound 9, (6S)-2-Nitro-6-({4-[6-(trifluoromethyl)-3-pyridinyl]benzyl}oxy)-6,7-dihydro-5H-imidazo[2,1-b][1,3]oxazine], the MIC came to 0.03 µM (≈ 0.0126 µg/mL) in data set [1] and 2.1 µM (≈ 0.883 µg/mL) in data set [2]. In the data set on M. tuberculosis Erdman [5], the “In vivo efficacy vs PA-824, Acute” value amounted to 15. Further, the “In vivo efficacy vs PA-824, Chronic” value with M. tuberculosis Erdman [6] was found to be 4.6. Also, the exposure (AUC) in “in vivo” came out at 414 µg·h/mL.
